# Assay results taken from patent US9925189B2, “Heterocyclic receptor agonists for the treatment of diabetes and metabolic disorders” (CymaBay Therapeutics, Inc., priority 2006, dated 2018).
# Target: T1, IC-GPCR2 (Homo sapiens, UniProt Q8TDV5, S309L)
# T1 construct: expressed in transfected cells
# T1 sequence (Q8TDV5 1-335 S309L): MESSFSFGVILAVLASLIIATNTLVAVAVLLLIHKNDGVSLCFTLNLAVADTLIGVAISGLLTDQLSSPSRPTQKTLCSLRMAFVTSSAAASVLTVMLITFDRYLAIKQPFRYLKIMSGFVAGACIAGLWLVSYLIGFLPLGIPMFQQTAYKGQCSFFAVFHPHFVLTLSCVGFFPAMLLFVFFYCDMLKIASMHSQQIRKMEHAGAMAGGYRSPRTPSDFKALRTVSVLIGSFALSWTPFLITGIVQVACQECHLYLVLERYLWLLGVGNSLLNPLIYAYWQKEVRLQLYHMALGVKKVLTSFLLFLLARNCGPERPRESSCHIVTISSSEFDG
# Experiment: Stimulation of cAMP in CHO cells stably expressing IC-GPCR2 (HTRF cAMP assay)
# Format: cell-based
# Conditions: 0.5 h, 30 minutes, IC-GPCR2 stably expressing CHO cells, read-out: Activity at 10 uM (% change in FRET signal from DMSO control)
# Method: This assay was developed using a stable cell line expressing IC-GPCR-2, generated as follows. IC-GPCR2 (SEQ ID NO:1) was cloned into Gateway pDEST 40vector (Invitrogen), using the Gateway cloning system (invitrogen) according to the manufacturer's instructions. A stable cell line was generated by transfecting a 10 cm plate of CHO cells (source) with 8 ug of this construct using Transit-CHO transfection kit (Mirus). CHO cells were plated the day prior to transfection at a density of 3,000,000 cells/plate. Clones were selected using the antibiotic G418 at 500 ug/ml. 23 clones were picked and assayed for the expression of the receptor by measuring changes in intracellular cAMP levels in response to an IC-GPCR2 agonist.
# To measure cAMP activity in response to IC-GPCR2 agonist, the clones were plated in 96 well plates at 17500 cells per well. On the day after plating, cells were incubated with the IC-CPCR2 agonist at […] for 30 minutes in Ham's F12 Media (Gibco) with 0.04% DMSO. cAMP was measured using the cAMP dynamic kit from Cis Bio (Bedford, Mass.) according to the manufacturer's instructions. Briefly, cells were lysed, and cAMP levels determined by competitive immunoassay using D2 labeled cAMP, and europium cryptate tagged anti cAMP antibody. When in close proximity, the D2 and europium cryptate undergo fluorescence resonance energy transfer (FRET), which is measured as a fluorescence ratio (665 nm/620 nm). Unlabelled cAMP in the cell lysate competed with the D2 labeled cAMP for the europium crypate labeled antibody. The resulting decrease in FRET signal corresponded to intracellular cAMP levels. Fluorescence was read on a BMG Labtech PHERAstar, software version 1.50.
# Compounds were dissolved in 100% DMSO to a concentration of […] to provide stock solutions. To determine activity against IC-GPCR2, compounds were incubated with IC-GPCR2 stably expressing cells (described above), at 6-8 concentrations ranging from 0.00003 to 10 micromolar, in 96 well plates, in 50 ul of Hams F12 media for 30 minutes. Cells were plated at 17500 cells per well 1 day before running the assay. All compounds were also screened against the parental CHO cells. cAMP was measured using the cAMP dynamic kit from Cis Bio (Bedford, Mass.), according to the manufacturer's instructions. Briefly, cells were lysed and cAMP levels determined by competitive immunoassay using D2 labeled cAMP, and europium cryptate tagged anti cAMP antibody. When in close proximity, the D2 and europium cryptate undergo fluorescence resonance energy transfer (FRET), which is measured as a fluorescence ratio (665 nm/620 nm). Unlabelled cAMP in the cell lysate competed with the D2 labeled cAMP for the europium crypate labeled antibody. The resulting decrease in FRET signal corresponded to intracellular cAMP levels.
# Activities of compounds disclosed in Table 1 and Table 2 below are expressed as the % change in FRET signal from DMSO control. “*” no activity observed when tested at 10 micromolar but no higher concentrations were tested. NT indicates the compound was not tested at the indicated concentration.
row,activation at 10 µM [%],Structure (SMILES)
1,70,"CCc1cnc(N2CCC(c3nc(COc4ccc(-n5nnnc5C)cc4)cs3)CC2)nc1 [Example 12, 5-Ethyl-2-(4-{4-[4-(5-methyl-tetrazol-1-yl)-phenoxymethyl]-thiazol-2-yl}-piperidin-1-yl)-pyrimidine]"
2,94,CCc1cnc(N2CCC(c3nc(COc4ccc(SC)c(C)c4)cs3)CC2)nc1 [Example 13]
3,84,"CCc1cnc(N2CCC(c3nc(COc4ccc(S(C)(=O)=O)c(C)c4)cs3)CC2)nc1 [Example 14, 5-Ethyl-2-{4-[4-(4-methanesulfonyl-3-methyl-phenoxymethyl)-thiazol-2-yl]-piperidin-1-yl}-pyrimidine]"
4,55,"CCc1cnc(N2CCC(c3nc(COc4ccc5sc(=O)oc5c4)cs3)CC2)nc1 [Example 15, 6-{2-[1-(5-Ethyl-pyrimidin-2-yl)-piperidin-4-yl]-thiazol-4-ylmethoxy}-benzo[1,3]oxathiol-2-one]"
5,56,"CCc1cnc(N2CCC(c3nc(COc4ccc(SC(F)(F)F)cc4)cs3)CC2)nc1 [Example 16, 5-Ethyl-2-{4-[4-(4-trifluoromethylsulfanyl-phenoxymethyl)-thiazol-2-yl]-piperidin-1-yl}-pyrimidine]"
6,69,"CC(C)(C)OC(=O)N1CCC(c2nc(COc3ccc(-n4cnnn4)c(F)c3)cs2)CC1 [Example 17, 4-[4-(3-Fluoro-4-tetrazol-1-yl-phenoxymethyl)-thiazol-2-yl]-piperidine-1-carboxylic acid tert-butyl ester]"
7,72,"CC(C)(C)OC(=O)N1CCC(c2nc(COc3ccc(S(C)(=O)=O)cc3F)cs2)CC1 [Example 18, 4-[4-(2-Fluoro-4-methanesulfonyl-phenoxymethyl)-thiazol-2-yl]-piperidine-1-carboxylic acid tert-butyl ester]"
8,76,"CC(C)(C)OC(=O)N1CCC(c2nc(COc3ccc(-n4cnnn4)cc3F)cs2)CC1 [Example 19, 4-[4-(2-Fluoro-4-tetrazol-1-yl-phenoxymethyl)-thiazol-2-yl]-piperidine-1-carboxylic acid tert-butyl ester]"
9,23,"CC(C)(C)OC(=O)N1CCC(c2nc(CS(=O)(=O)c3ccc(S(C)(=O)=O)cc3)cs2)CC1 [Example 21, 4-[4-(4-Methanesulfonyl-benzenesulfonylmethyl)-thiazol-2-yl]-piperidine-1-carboxylic acid tert-butyl ester]"
10,62,"CC(C)OC(=O)N1CCC(c2nc(COc3ccc(S(C)(=O)=O)cc3)cs2)CC1 [Example 22, 4-[4-(4-Methanesulfonyl-phenoxymethyl)-thiazol-2-yl]-piperidine-1-carboxylic acid isopropyl ester]"
11,37,"CS(=O)(=O)c1ccc(OCc2csc(C3CCN(C(=O)OCc4ccccc4)CC3)n2)cc1 [Example 23, 4-[4-(4-Methanesulfonyl-phenoxymethyl)-thiazol-2-yl]-piperidine-1-carboxylic acid benzyl ester]"
12,58,"CC(C)COC(=O)N1CCC(c2nc(COc3ccc(S(C)(=O)=O)cc3)cs2)CC1 [Example 24, 4-[4-(4-Methanesulfonyl-phenoxymethyl)-thiazol-2-yl]-piperidine-1-carboxylic acid isobutyl ester]"
13,23,"CS(=O)(=O)c1ccc(OCc2csc(C3CCN(C(=O)OC45CC6CC(CC(C6)C4)C5)CC3)n2)cc1 [Example 25, 4-[4-(4-Methanesulfonyl-phenoxymethyl)-thiazol-2-yl]-piperidine-1-carboxylic acid adamantan-1-yl ester]"
14,58,"COC(=O)N1CCC(c2nc(COc3ccc(S(C)(=O)=O)cc3)cs2)CC1 [Example 26, 4-[4-(4-Methanesulfonyl-phenoxymethyl)-thiazol-2-yl]-piperidine-1-carboxylic acid methyl ester]"
15,63,"CS(=O)(=O)c1ccc(OCc2csc(C3CCN(C(=O)Oc4ccc(F)cc4)CC3)n2)cc1 [Example 27, 4-[4-(4-Methanesulfonyl-phenoxymethyl)-thiazol-2-yl]-piperidine-1-carboxylic acid 4-fluoro-phenyl ester]"
16,62,"COc1ccc(OC(=O)N2CCC(c3nc(COc4ccc(S(C)(=O)=O)cc4)cs3)CC2)cc1 [Example 28, 4-[4-(4-Methanesulfonyl-phenoxymethyl)-thiazol-2-yl]-piperidine-1-carboxylic acid 4-methoxy-phenyl ester]"
17,51,"CS(=O)(=O)c1ccc(OCc2csc(C3CCN(C(=O)Oc4cccc5ccccc45)CC3)n2)cc1 [Example 29, 4-[4-(4-Methanesulfonyl-phenoxymethyl)-thiazol-2-yl]-piperidine-1-carboxylic acid naphthalen-1-yl ester]"
18,73,"CC(C)COC(=O)N1CCC(c2nc(COc3ccc(-n4cnnn4)cc3)cs2)CC1 [Example 30, 4-[4-(4-Tetrazol-1-yl-phenoxymethyl)-thiazol-2-yl]-piperidine-1-carboxylic acid isobutyl ester]"
19,88,"CCCCCOC(=O)N1CCC(c2nc(COc3ccc(-n4cnnn4)cc3)cs2)CC1 [Example 31, 4-[4-(4-Tetrazol-1-yl-phenoxymethyl)-thiazol-2-yl]-piperidine-1-carboxylic acid pentyl ester]"
20,88,"O=C(OCCF)N1CCC(c2nc(COc3ccc(-n4cnnn4)cc3)cs2)CC1 [Example 32, 4-[4-(4-Tetrazol-1-yl-phenoxymethyl)-thiazol-2-yl]-piperidine-1-carboxylic acid 2-fluoro-ethyl ester]"
21,77,"CCCCOC(=O)N1CCC(c2nc(COc3ccc(-n4cnnn4)cc3)cs2)CC1 [Example 33, 4-[4-(4-Tetrazol-1-yl-phenoxymethyl)-thiazol-2-yl]-piperidine-1-carboxylic acid butyl ester]"
22,70,"CC(C)(C)COC(=O)N1CCC(c2nc(COc3ccc(-n4cnnn4)cc3)cs2)CC1 [Example 34, 4-[4-(4-Tetrazol-1-yl-phenoxymethyl)-thiazol-2-yl]-piperidine-1-carboxylic acid 2,2-dimethyl-propyl ester]"
23,64,"CCCCCCOC(=O)N1CCC(c2nc(COc3ccc(-n4cnnn4)cc3)cs2)CC1 [Example 35, 4-[4-(4-Tetrazol-1-yl-phenoxymethyl)-thiazol-2-yl]-piperidine-1-carboxylic acid hexyl ester]"
24,95,"CCCCC(CC)COC(=O)N1CCC(c2nc(COc3ccc(-n4cnnn4)cc3)cs2)CC1 (centres unmarked) [Example 36, 4-[4-(4-Tetrazol-1-yl-phenoxymethyl)-thiazol-2-yl]-piperidine-1-carboxylic acid 2-ethyl-hexyl ester]"
25,80,"O=C(OCCOCc1ccccc1)N1CCC(c2nc(COc3ccc(-n4cnnn4)cc3)cs2)CC1 [Example 37, 4-[4-(4-Tetrazol-1-yl-phenoxymethyl)-thiazol-2-yl]-piperidine-1-carboxylic acid 2-benzyloxy-ethyl ester]"
26,39,"CC(C)[C@@H]1CC[C@@H](C)C[C@H]1OC(=O)N1CCC(c2nc(COc3ccc(-n4cnnn4)cc3)cs2)CC1 [Example 38, 4-[4-(4-Tetrazol-1-yl-phenoxymethyl)-thiazol-2-yl]-piperidine-1-carboxylic acid 2-isopropyl-5-methyl-cyclohexyl ester]"
